How the values were obtained:
[1] = molecular target: Nuclear receptor subfamily 1 group I member 2 (Homo sapiens, UniProt O75469); assay: Activation of human PXR expressed in human LS174T cells; format: ADME, cell-based
[2] = Chemical stability of the compound in PBS buffer assessed as compound remaining at pH 7.4 after 10 mins; format: physicochemical; conditions: read-out: Stability
[3] = Chemical stability of the compound in human hepatocyte culture medium assessed as compound remaining at 1 to 50 uM after 24 hrs; format: physicochemical; conditions: read-out: Stability
[4] = Total Cmax in human; format: ADME, organism-based; conditions: in vivo
Homo sapiens = species on record: Homo sapiens; assay: Unbound Cmax in human; format: ADME, organism-based; conditions: in vivo
Hepatocyte [5] = assay: Cytotoxicity against human hepatocytes assessed as cell viability relative to control; format: cell-based
Cytochrome P450 2B6 [6] = molecular target: T1, Cytochrome P450 2B6 (Homo sapiens, UniProt P20813); assay: Inhibition of CYP2B6 in human liver microsomes incubated for 3 mins prior to NADPH addition measured after 10 mins by LC-MS analysis; format: ADME
T1 sequence (P20813 whole entry): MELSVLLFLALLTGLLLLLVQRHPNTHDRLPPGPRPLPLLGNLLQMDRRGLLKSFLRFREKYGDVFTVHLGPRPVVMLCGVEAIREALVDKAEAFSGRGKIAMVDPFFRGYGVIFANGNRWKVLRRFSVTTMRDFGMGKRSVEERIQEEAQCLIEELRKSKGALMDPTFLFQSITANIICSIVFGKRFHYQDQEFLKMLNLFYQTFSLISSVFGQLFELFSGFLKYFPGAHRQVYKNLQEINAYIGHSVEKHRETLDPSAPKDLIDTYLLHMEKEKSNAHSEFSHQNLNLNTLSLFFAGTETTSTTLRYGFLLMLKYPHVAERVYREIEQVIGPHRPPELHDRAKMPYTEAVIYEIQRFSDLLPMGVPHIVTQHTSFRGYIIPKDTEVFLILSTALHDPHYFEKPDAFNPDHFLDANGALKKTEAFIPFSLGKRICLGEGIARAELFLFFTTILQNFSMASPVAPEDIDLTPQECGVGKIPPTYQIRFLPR

Cytochrome P450 2B6 [7] = molecular target: T1, Cytochrome P450 2B6; assay: Inhibition of recombinant CYP2B6 (unknown origin) incubated for 3 mins prior to NADPH addition measured after 10 mins by LC-MS analysis; format: ADME
Cytochrome P450 3A4 [8] = molecular target: T2, Cytochrome P450 3A4 (Homo sapiens, UniProt P08684); assay: Inhibition of CYP3A4 in human liver microsomes incubated for 3 mins prior to NADPH addition measured after 3 mins by LC-MS analysis; format: ADME
Cytochrome P450 3A4 [9] = molecular target: T2, Cytochrome P450 3A4; assay: Inhibition of recombinant CYP3A4 (unknown origin) incubated for 3 mins prior to NADPH addition measured after 3 mins by LC-MS analysis; format: ADME
CYP2B6 [10] = molecular target: CYP2B6 (Homo sapiens, UniProt P20813); assay: (§1) Induction of CYP2B6 in human hepatocytes at 10 uM after 72 hrs relative to vehicle-treated control; format: ADME, cell-based, Hepatocyte; conditions: read-out: FC
Cytochrome P450 2B6 [11] = molecular target: T1, Cytochrome P450 2B6; assay: as §1; format: ADME, cell-based, Hepatocyte; conditions: 72 h, 10 µM
CYP3A4 [12] = molecular target: CYP3A4 (Homo sapiens, UniProt P08684); assay: (§2) Induction of CYP3A4 in human hepatocytes at 10 uM after 72 hrs relative to vehicle-treated control
Cytochrome P450 3A4 [13] = molecular target: T2, Cytochrome P450 3A4; assay: as §2; conditions: 72 h, 10 µM
CYP2C9 [14] = molecular target: CYP2C9 (Homo sapiens, UniProt P11712); assay: Induction of CYP2C9 in human hepatocytes at 10 uM after 72 hrs relative to vehicle-treated control; format: ADME, cell-based, Hepatocyte; conditions: read-out: FC
CYP2B6 [15] = assay: (§3) Induction of CYP2B6 mRNA expression in human hepatocytes at 10 uM after 72 hrs by RT-PCR analysis relative to vehicle-treated control; format: ADME, cell-based, Hepatocyte; conditions: read-out: FC
Hepatocyte [16] = assay: as §3; format: ADME, cell-based; conditions: 72 h, 10 µM
CYP3A4 [17] = assay: (§4) Induction of CYP3A4 mRNA expression in human hepatocytes at 10 uM after 72 hrs by RT-PCR analysis relative to vehicle-treated control
Hepatocyte [18] = assay: as §4; conditions: 72 h, 10 µM
CYP2C9 [19] = assay: Induction of CYP2C9 mRNA expression in human hepatocytes at 10 uM after 72 hrs by RT-PCR analysis relative to vehicle-treated control; format: ADME, cell-based, Hepatocyte; conditions: read-out: FC
CYP1A2 = assay: Induction of CYP1A2 mRNA expression in human hepatocytes at 10 uM after 72 hrs by RT-PCR analysis relative to vehicle-treated control; format: ADME, cell-based, Hepatocyte; conditions: read-out: FC
CYP2A6 = assay: Induction of CYP2A6 mRNA expression in human hepatocytes at 10 uM after 72 hrs by RT-PCR analysis relative to vehicle-treated control; format: ADME, cell-based, Hepatocyte; conditions: read-out: FC
CYP2C8 = assay: Induction of CYP2C8 mRNA expression in human hepatocytes at 10 uM after 72 hrs by RT-PCR analysis relative to vehicle-treated control; format: ADME, cell-based, Hepatocyte; conditions: read-out: FC
CYP2C19 = assay: Induction of CYP2C19 mRNA expression in human hepatocytes at 10 uM after 72 hrs by RT-PCR analysis relative to vehicle-treated control; format: ADME, cell-based, Hepatocyte; conditions: read-out: FC
CYP3A5 = assay: Induction of CYP3A5 mRNA expression in human hepatocytes at 10 uM after 72 hrs by RT-PCR analysis relative to vehicle-treated control
CYP2D6 = assay: Induction of CYP2D6 mRNA expression in human hepatocytes at 10 uM after 72 hrs by RT-PCR analysis relative to vehicle-treated control; format: ADME, cell-based, Hepatocyte; conditions: read-out: FC
CYP2E1 = assay: Induction of CYP2E1 mRNA expression in human hepatocytes at 10 uM after 72 hrs by RT-PCR analysis relative to vehicle-treated control; format: ADME, cell-based, Hepatocyte; conditions: read-out: FC
UGT1A9 = assay: Induction of UGT1A9 mRNA expression in human hepatocytes at 10 uM after 72 hrs by RT-PCR analysis relative to vehicle-treated control; format: ADME, cell-based, Hepatocyte; conditions: read-out: FC
UGT2B7 = assay: Induction of UGT2B7 mRNA expression in human hepatocytes at 10 uM after 72 hrs by RT-PCR analysis relative to vehicle-treated control; format: ADME, cell-based, Hepatocyte; conditions: read-out: FC
MDR1 = assay: Induction of MDR1 mRNA expression in human hepatocytes at 10 uM after 72 hrs by RT-PCR analysis relative to vehicle-treated control; format: ADME, cell-based, Hepatocyte; conditions: read-out: FC
MRP1 = assay: Induction of MRP1 mRNA expression in human hepatocytes at 10 uM after 72 hrs by RT-PCR analysis relative to vehicle-treated control; format: cell-based, Hepatocyte; conditions: read-out: FC
MRP2 = assay: Induction of MRP2 mRNA expression in human hepatocytes at 10 uM after 72 hrs by RT-PCR analysis relative to vehicle-treated control; format: cell-based, Hepatocyte; conditions: read-out: FC

T2 sequence (P08684 whole entry): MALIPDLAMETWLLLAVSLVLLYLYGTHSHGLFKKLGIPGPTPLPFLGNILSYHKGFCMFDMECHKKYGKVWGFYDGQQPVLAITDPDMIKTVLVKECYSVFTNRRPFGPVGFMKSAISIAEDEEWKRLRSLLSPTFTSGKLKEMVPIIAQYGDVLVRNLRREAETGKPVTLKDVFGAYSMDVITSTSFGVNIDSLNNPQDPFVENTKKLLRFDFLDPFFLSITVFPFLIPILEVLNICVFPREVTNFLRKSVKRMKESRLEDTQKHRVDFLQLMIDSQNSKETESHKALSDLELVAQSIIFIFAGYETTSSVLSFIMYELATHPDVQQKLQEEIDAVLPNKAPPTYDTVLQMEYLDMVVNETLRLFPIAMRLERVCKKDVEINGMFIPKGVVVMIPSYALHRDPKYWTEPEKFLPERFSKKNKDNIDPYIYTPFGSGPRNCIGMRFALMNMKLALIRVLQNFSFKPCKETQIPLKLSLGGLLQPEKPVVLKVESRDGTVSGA
CYP3A4 (Homo sapiens, UniProt P08684), sequence (P08684 whole entry): as above
CYP2C9 (Homo sapiens, UniProt P11712), sequence (P11712 whole entry): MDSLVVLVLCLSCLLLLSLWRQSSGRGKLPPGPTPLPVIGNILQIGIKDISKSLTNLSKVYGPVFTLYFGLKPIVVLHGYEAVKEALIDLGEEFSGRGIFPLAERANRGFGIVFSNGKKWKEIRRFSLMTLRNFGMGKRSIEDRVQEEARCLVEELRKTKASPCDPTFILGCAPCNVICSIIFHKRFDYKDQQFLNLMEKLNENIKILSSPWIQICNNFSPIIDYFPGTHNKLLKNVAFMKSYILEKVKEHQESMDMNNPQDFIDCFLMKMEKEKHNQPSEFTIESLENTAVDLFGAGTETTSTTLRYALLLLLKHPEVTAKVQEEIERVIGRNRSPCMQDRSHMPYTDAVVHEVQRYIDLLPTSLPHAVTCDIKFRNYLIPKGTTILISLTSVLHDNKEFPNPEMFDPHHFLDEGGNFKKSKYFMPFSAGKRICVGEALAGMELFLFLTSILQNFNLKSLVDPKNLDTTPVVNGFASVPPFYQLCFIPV
Nuclear receptor subfamily 1 group I member 2, sequence (O75469 whole entry): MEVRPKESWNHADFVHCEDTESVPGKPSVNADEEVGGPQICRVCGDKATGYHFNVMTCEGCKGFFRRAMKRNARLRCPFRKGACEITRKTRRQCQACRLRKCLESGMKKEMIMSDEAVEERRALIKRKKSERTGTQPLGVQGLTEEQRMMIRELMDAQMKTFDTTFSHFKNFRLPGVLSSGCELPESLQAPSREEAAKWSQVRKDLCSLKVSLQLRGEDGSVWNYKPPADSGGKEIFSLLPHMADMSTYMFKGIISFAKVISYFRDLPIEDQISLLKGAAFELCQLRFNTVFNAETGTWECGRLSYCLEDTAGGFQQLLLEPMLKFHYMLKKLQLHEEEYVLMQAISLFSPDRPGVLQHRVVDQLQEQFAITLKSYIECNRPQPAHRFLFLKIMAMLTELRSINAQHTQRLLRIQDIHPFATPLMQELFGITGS

## C[C@@H]1CC[C@H]2[C@@H](C)C(=O)O[C@@H]3O[C@@]4(C)CC[C@@H]1[C@]32OO4 [ARTEMISININ]
[1]
  EC50: 30 µM
[2]
  remaining at 10 min: < 15%
[3]
  remaining at 24 h, up to 50 µM: 38%
[4]
  Cmax: 1600 nM
Homo sapiens
  fCmax: 0.58 µM
Hepatocyte [5]
  Activity: < 50 µM

## C[C@H]1[C@@H](O)O[C@@H]2O[C@@]3(C)CC[C@H]4[C@H](C)CC[C@@H]1[C@@]24OO3 [ARTENIMOL]
Cytochrome P450 2B6 [6]
  IC50: > 125 µM
Cytochrome P450 2B6 [7]
  IC50: > 125 µM
Cytochrome P450 3A4 [8]
  IC50: > 125 µM
Cytochrome P450 3A4 [9]
  IC50: > 125 µM
CYP2B6 [10]
  fold induction at 72 h, 10 µM: 2.9
Cytochrome P450 2B6 [11]
  Activity: 11.3%
CYP3A4 [12]
  fold induction at 72 h, 10 µM: 2.1
Cytochrome P450 3A4 [13]
  Activity: 5.2%
CYP2C9 [14]
  fold induction at 72 h, 10 µM: 1.2
CYP2B6 [15]
  fold induction at 72 h, 10 µM: 3.5
Hepatocyte [16]
  Activity: 13.9%
CYP3A4 [17]
  fold induction at 72 h, 10 µM: 3.4
Hepatocyte [18]
  Activity: 7.7%
CYP2C9 [19]
  fold induction at 72 h, 10 µM: 1
CYP1A2
  fold induction at 72 h, 10 µM: 1.1
CYP2A6
  fold induction at 72 h, 10 µM: 2.2
CYP2C8
  fold induction at 72 h, 10 µM: 0.8
CYP2C19
  fold induction at 72 h, 10 µM: 1.3
CYP3A5
  fold induction at 72 h, 10 µM: 1
CYP2D6
  fold induction at 72 h, 10 µM: 0.7
CYP2E1
  fold induction at 72 h, 10 µM: 0.6
UGT1A9
  fold induction at 72 h, 10 µM: 1.4
UGT2B7
  fold induction at 72 h, 10 µM: 0.7
MDR1
  fold induction at 72 h, 10 µM: 1
MRP1
  fold induction at 72 h, 10 µM: 0.8
[3]
  remaining at 24 h, up to 50 µM: 8%
MRP2
  fold induction at 72 h, 10 µM: 0.8
Hepatocyte [5]
  Activity: 50 µM

## CO[C@H]1/C=C/O[C@@]2(C)Oc3c(C)c(O)c4c(O)c(c(/C=N/N5CCN(C)CC5)c(O)c4c3C2=O)NC(=O)/C(C)=C\C=C\[C@H](C)[C@H](O)[C@@H](C)[C@@H](O)[C@@H](C)[C@H](OC(C)=O)[C@@H]1C [RIFAMPIN]
Hepatocyte [5]
  Activity: < 50 µM
